Measurements as given in publication PMC10447463, “Data-mining unveils structure–property–activity correlation of viral infectivity enhancing self-assembling peptides” (Nature Communications, 2023).
Values joined by “and” are separate entries in the source; they are usually repeats but may differ in a detail not shown here. Equal entries are not always repeated. Where two headings read alike, the source gives them in different places.

Experiments:
[1] = Turbidity, derived count rate of scattered light; type: physicochemical; conditions: for Log Count Rate: log of derived count rate; for Count Rate / Zeta Count Rate / kcps: derived count rate of scattered light
Method in brief: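 One-day room-temperature aggregation at 1 mg/mL in PBS (pH 7.4) preceded measurement; samples then went into 1 mM KCl. Triplicates per sample, two independent experiments averaged.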

[2] = Zeta-potential measurement; type: physicochemical; conditions: for Zeta-pot. / mV: zeta potential of peptide, Fig S15 source data
Method in brief: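 Surface charge of aggregated peptides: 1 mg/mL solutions in PBS (pH 7.4) incubated 1 d at RT, diluted into 1 mM KCl just before reading. Electrophoretic mobility converted to zeta potential by the Smoluchowski formula; triplicate measurements from two separate experiments averaged.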

[3] = β-sheet content by ATR-FT-IR; type: physicochemical
Method in brief: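 1 mg/mL PNF solutions lyophilized and powders measured by diamond ATR FT-IR (2 cm^-1 resolution, 64 scans); β-sheet content calculated per a prior method. For CR, PNF solution centrifuged through 3 kDa MWCO filter (16200 x g, 4 °C, 45 min); filtrate and unfiltered sample lyophilized, dissolved in DMSO, reacted with fluorescamine.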

[4] = system: HIV-1 infection of TZM-bl cells; assay: HIV-1 infectivity enhancement assay, β-galactosidase luminescence; type: cell-based; conditions: for Rel-to EFC / n-fold to virus: Fig S8 panels B, D; for Log10 Infection Rel EF-C: HIV-1 infection of TZM-bl cells
[5] = Fig S8 panels A, C, asymmetric log errors
[6] = mean, std deviation in next column
[7] = Feb2021, Log10 of infectivity relative to EF-C
[8] = Feb2021, n-fold infectivity relative to EF-C
[9] = infectivity enhancement relative to EF-C
[10] = infectivity n-fold relative to virus alone
[11] = infectivity class (low / medium / high) of each library peptide, main list in c1-c6, same classes repeated in sub-lists of sequences containing the hydrophobicity/charge patterns P+,H0,P+,H0,P0,H0,P0, P+,H0,P0,H0,P0,H0,P0, P+,H0,P0,H0
[12] = log10 of HIV-1 infection of TZM-bl cells relative to EF-C, Fig S15 source data, asymmetric std dev errors
[13] = category 1 or 0 from count rate, key not given
[14] = mean, std deviation in separate column
[15] = Feb2021, 1.3 µM value relative to virus only (0 µM)
[16] = Feb2021, n-fold enhancement relative to EF-C
[17] = Feb2021, unrounded values of the 1.3 µM column
[18] = Feb2021 run, infectivity n-fold relative to virus alone
[19] = Feb2021 run, log10 of infectivity relative to EF-C
[20] = Feb2021 run, n-fold infectivity relative to EF-C

Row | Substance | Zeta Count Rate / kcps [1, 6] | Zeta category ( +1 = if > 4 mV;-1 = if < -4 mV; 0 = -4mV to 4 mV) [2] | Zeta Pot. / mV ([2]; mean, Std Zeta in next column) | Zeta-pot. / mV [2] | FTIR ß-sheet content/ % ([3]; ATR-FT-IR) | Log10 of Rel to EFC (Feb2021) [4, 7] | Rel-to EFC (Feb-2021) [4, 8] | infectivity [4, 11] | Log10 Inf. rel. to EF-C [4, 12] | Zeta Count Rate Category ([1]; category 1/0, no key printed) | Zeta Count Rate Category [1, 13] | Zeta Count Rate / kcps [1, 14] | Zeta category ( +1 = if > 4 mV;-1 = if < -4 mV; 0 = -4mV to 4 mV) ([2]; category from zeta potential) | Zeta Pot. / mV ([2]; mean, Std in separate column) | FTIR ß-sheet content/ % [3] | n-fold to virus (Feb2021) [4, 15] | Rel-to EFC (Feb-2021) [4, 16] | Absolute Infectivity / RLU /s (Feb2021) [4, 17] | n-fold to virus (Feb2021) [4, 18] | Log10 of Rel to EFC (Feb2021) [4, 19] | other results
1 | HHHHKIKIKIKIYYYY [TM6] | 12792.53333 kcps | 1 (+1 = if > 4 mV) | 13.2 mV | 13.2 mV | 0% | -0.1685 | 0.6784 | medium | -0.1685 |  |  |  |  |  |  |  |  |  |  |  | Log Count Rate [1, 5]: 4.107; Log Count Rate ([1]; Fig S8 panels B, D): 4.107; Count Rate ([1]; Fig S8 panels B, D, turbidity): 12792.5; Zeta Count Rate Category ([1]; category 1 / 0, no key given): 1; Zeta Count Rate Category ([1]; category 1 or 0 derived from the count rate, key not given): 1; Zeta Count Rate / kcps [1]: 12792.53333 kcps; Zeta Pot. / mV [2]: 13.2 mV; Zeta category ( +1 = if > 4 mV;-1 = if < -4 mV; 0 = -4mV to 4 mV) ([2]; category derived from the zeta potential): 1 (+1 = if > 4 mV); Absolute Infectivity / RLU /s (Feb2021) ([4]; Feb2021, figures match the 1.3 µM column): 20713.33333 RLU /s; Rel-to EFC (Feb-2021) ([4]; Feb2021, infectivity enhancement relative to EF-C): 0.6784; n-fold to virus (Feb2021) ([4]; Feb2021, infectivity relative to virus only): 28.5; Rel-to EFC [4, 9]: 0.6784; n-fold to virus [4, 10]: 28.5
2 | KAKAQA [JJA2 / TM153] | 20.93 kcps | -1 (-1 = if < -4 mV) | -14.08 mV | -14.08 mV | 40% and 40.34% | -1.743 | 0.01805 | low | -1.743 | 0 | 0 | 20.93 kcps | -1 (-1 = if < -4 mV) | -14.08 mV | 40.34% | 0.7586 | 0.01805 | 146.7 RLU /s | 0.7586 | -1.743 | Rel-to EFC (Feb-2021) [4, 20]: 0.01805
3 | KAKAQANMWQ [JG3] | 56.17 kcps | -1 (-1 = if < -4 mV) | -19.63 mV | -19.63 mV | 43% and 42.81% | -2.146 | 0.007152 | low | -2.146 | 0 | 0 | 56.17 kcps | -1 (-1 = if < -4 mV) | -19.63 mV | 42.81% | 0.3005 | 0.007152 | 193.3 RLU /s | 0.3005 | -2.146 | Rel-to EFC (Feb-2021) [4, 20]: 0.007152
4 | KFKFQF [JJA6] | 183.4 kcps | -1 (-1 = if < -4 mV) | -11.03 mV | -11.03 mV | 46% | -1.213 | 0.06128 | low | -1.213 | 1 | 1 | 183.4 kcps | -1 (-1 = if < -4 mV) | -11.03 mV | 46% | 2.575 | 0.06128 | 686.7 RLU /s | 2.575 | -1.213 | Rel-to EFC (Feb-2021) [4, 20]: 0.06128
5 | KFKFQFNM [BL6a] | 131.8 kcps | 1 (+1 = if > 4 mV) | 13.9 mV | 13.9 mV | 40% and 40.31% | -0.3265 | 0.4715 | medium | -0.3265 | 1 | 1 | 131.8 kcps | 1 (+1 = if > 4 mV) | 13.9 mV | 40.31% | 19.81 | 0.4715 | 7067 RLU /s | 19.81 | -0.3265 | Rel-to EFC (Feb-2021) [4, 20]: 0.4715
6 | KFKFQFNMW |  |  |  |  |  |  |  |  |  |  |  |  |  |  |  |  |  |  |  |  | Log10 Count Rate ([1]; Log10 of derived count rate of scattered light (turbidity)): 2.785; Count Rate / kcps ([1]; derived count rate of scattered light at 633 nm, 173°, from zeta-potential measurement, 0.1 mg/mL in 1 mM KCl after 1 d at 1 mg/mL in PBS, turbidity / microscopic aggregation, mean of triplicate): 610 kcps; Log10 Count Rate ([1]; turbidity, Log10 of derived count rate of scattered light, Figure 3A source data): 2.785; Log10 Count Rate ([1]; turbidity, log10 of derived count rate of scattered light): 2.785; Zeta-Pot. [2]: 22.6; Zeta-Potential / mV ([2]; zeta-potential of peptide, source data of Figure 2C): 16.22 mV; Zeta-Potential / mV ([2]; zeta-potential of the peptide assemblies, mean, Figure 3A source data): 22.6 mV; b -sheet / % ([3]; Fig. S7 panel A, β-sheet content by ATR-FT-IR): 38.191%; Rel-EFC ([4]; 1.3 µM peptide, infection relative to EF-C (QCKIKQIINMWQ = 1)): 0,45; Log10 Infection Rel EFC ([4]; 1.3 µM peptide, log10 of infection relative to EF-C): -0,35; Log Infectivity ([4]; Fig. S7 panel A (plotted against β-sheet content), Log10 infection relative to EF-C, TZM-bl cells, asymmetric std dev errors): -0.3503; Log10 Infection Rel EF-C ([4]; Log10 of infection rate relative to EF-C, Figure 3A source data): -0.35; Log10 Infection Rel EF-C ([4]; infection rate relative to EF-C, log10, data of Figure 2D): -0.3503; Log10 Infection Rel EF-C ([4]; infection rate relative to EF-C, log10, source data of Figure 2C): -0.3503; Log10 of Rel to EFC (Feb2021) ([4]; Log10 of infection relative to EF-C, all peptides of FigS16): -0.35; Abs. Inf. ([4]; absolute infection signal, HIV-1 on TZM-bl cells, β-galactosidase luminescence): 6690; Log10 Inf. rel. to EF-C ([4]; log10 of HIV-1 infection of TZM-bl cells relative to EF-C (EF-C = 0)): -0.3503
7 | KFKFQFNMWQ [JG4] | 734.6 kcps | 1 (+1 = if > 4 mV) | 25.4 mV | 25.4 mV | 43% and 43.15% | -0.1164 | 0.7649 | high | -0.1164 | 1 | 1 | 734.6 kcps | 1 (+1 = if > 4 mV) | 25.4 mV | 43.15% | 32.14 | 0.7649 | 20676.66667 RLU /s | 32.14 | -0.1164 | Log Count Rate [1, 5]: 2.866; Log Count Rate ([1]; Fig S8 panels B, D): 2.866; Count Rate ([1]; Fig S8 panels B, D, turbidity): 734.63; Zeta Count Rate Category ([1]; category from count rate, key not given): 1; Zeta Count Rate / kcps [1]: 734.6 kcps; Zeta Pot. / mV ([2]; mean, Std Zeta in separate column): 25.4 mV; Absolute Infectivity / RLU /s (Feb2021) ([4]; Feb2021 data set, in other rows equals the 1.3 µM column, mean, STD in separate column): 20676.66667 RLU /s; Rel-to EFC (Feb-2021) ([4]; Feb2021 data set, infectivity enhancement relative to EF-C): 0.7649; n-fold to virus (Feb2021) ([4]; Feb2021 data set, infectivity n-fold to virus alone): 32.14; Log10 of Rel to EFC (Feb2021) ([4]; Feb2021 data set, log10 of infectivity relative to EF-C): -0.1164; Rel-to EFC (Feb-2021) [4, 20]: 0.7649; Rel-to EFC [4, 9]: 0.7649; n-fold to virus [4, 10]: 32.1399; infectivity ([4]; infectivity class (low / medium / high) of the peptide in the sequence-pattern analysis, Fig. S22-A4, class limits not given): high
